The values below are quoted from earlier work in patent US10912731B2, “Biphasic oral care compositions” (Colgate-Palmolive Company, priority 2017, dated 2021).

For the data set the following is noted: aqueous solution.

Take `NCCCC[C@H](N)C(=O)O` [lysine]: the Isoelectric point was 9.7 pH.
